Measured values taken from patent US20240116945A1, “EXATECAN-DERIVED TOPOISOMERASE-1 INHIBITORS PHARMACEUTICAL COMPOSITIONS, AND USES THEREOF” (Merck Sharp & Dohme LLC, priority 2022, published 2024).
Where a name gives a salt, the structure may show the parent alone.

Tested on: Jeko-1 cells
Test: CellTiter-Glo 2.0 Cytotoxicity Assay
Assay type: cell-based
Conditions: Homo sapiens, JeKo-1, read-out: Jeko-1 EC50 (nM), Jeko-1 cells, 3000 cells/well; compounds added Day 1; CellTiter-Glo 2.0 luminescence read on Day 4 or 5
Experimental: Reaction progress and synthetic intermediate analysis were assessed by LCMS (UV detection with ESI, APCI, or other mass detection) when applicable using a MeCN/water gradient with either TFA, formic acid, or NH4HCO3 modifier. Silica gel and reverse-phase flash column chromatography were conducted with commercially available pre-packed columns. Reverse-phase preparative HPLC purification was performed on preparative HPLC instruments with UV and MS detection using a MeCN/water gradient with either TFA, formic acid, or NH4OH modifier. ^1H NMR spectra were collected at room temperature, and chemical shifts are reported in ppm relative to the residual proteo-solvent signals, and multiplicities, coupling constants (where applicable), and signal integrations are listed parenthetically. Unless otherwise noted, all EC50 data presented in tables refers to the CellTiter-Glo® 2.0 Cytotoxicity Assay that is described in the Biological Assay section.
CellTiter-Glo® 2.0 Cytotoxicity Assay
Step 1: Seed 384-Well Plates for Assay (45 μL Per Well) on Day 0
Jeko-1 cells were quickly thawed in a cryo-vial by incubating them in a 37° C. water bath for <1 min until there is just a small bit of ice left in the vial. The vial was promptly removed and wiped down with 70% ethanol. The cells were transferred from the vial to a sterile centrifuge tube containing 8 mL of pre-warmed cell culture medium. The vial was flushed with an additional 1 mL of medium to ensure complete transfer of cells to the centrifuge tube. The cells were then centrifuged at 150×g for 5 minutes. The supernatant was aspirated, and the cell pellet was resuspended in 10-20 mL cell culture medium. Cells were counted using Vi-cell and prepared 6.6×10^4 cells/ml, 3000 cells/45 μL per well. Then added 45 μL/well of cells into Corning® 384-well Low Flange White Flat Bottom Polystyrene TC-treated Microplates (Corning, Cat #3570) using Standard Cassette Combi (if needed, dispense 1 dummy plate at 20 μL to help normalize Combi, using medium speed). The plates were spun down at 150×g for 30 seconds.
Step 2: Add Compounds on Day 1
The compound plates and reference compound stock were taken out and allowed to thaw at RT. The tubes were centrifuged at 2000×g for 30 seconds. The 10× Intermediate assay plates (Greiner plate, Cat #781280) were prepared using an Echo liquid handler. Proper buffer (HBSS (Gibco, Cat #14025-092)+10 mM HEPES (Gibco, Cat #15630-080)+0.1% BSA (Sigma, Cat #A9576)) were used to make serial dilutions. Media (no cells) was used for Max_E. Compound (5 μL of 10×) was transferred from intermediate plate to assay plate using a Bravo liquid handler using a very slow speed so the cell monolayer wasn't disturbed. The plates were spun down at 150×g for 30 seconds.
Step 3: CellTiter-Glo 2.0 Assay (Promega, Cat #G9242) on Day 4 or 5 (CellTiter-Glo Kit Stored at −70° C.)
The CellTiter-Glo® 2.0 Reagent was thawed at 4° C. overnight, taking care not to expose the reagent to temperatures above 25° C.). The kit was equilibrated to RT for approximately 30 minutes. CellTiter-Glo® 2.0 Reagent (20 μl) was added to 50 μl of medium containing cells using Standard Cassette Combi. The contents were mixed for 2-3 minutes on an orbital shaker to induce cell lysis. The plates were spun down at 150×g for 30 seconds. The plates were allowed to incubate at RT for 5 minutes to stabilize the luminescent signal.
Illustrative compounds of the present disclosure were tested in the above assay in Example 15, and results are provided in the Table 9 below: […]

Row | Compound | EC50 [nM]
1 | CC[C@@]1(O)C(=O)OCc2c1cc1n(c2=O)Cc2c-1nc1cc(F)c(C)c3c1c2[C@@H](NC(=O)[C@@H](N)CN)CC3 [Compound 50, (S)-2,3-diamino-N-((1S,9S)-9-ethyl-5-fluoro-9-hydroxy-4-methyl-10,13-dioxo-2,3,9,10,13,15-hexahydro-1H,12H-benzo[de]pyrano[3′,4′: 6,7]indolizino[1,2-b]quinolin-1-yl)propanamide formate] | 90
2 | CC[C@@]1(O)C(=O)OCc2c1cc1n(c2=O)Cc2c-1nc1cc(F)c(C)c3c1c2[C@@H](NC(=O)C(N)CC(C)C)CC3 (some centres unmarked) [Compound 42] | 5.5
3 | CC[C@@]1(O)C(=O)OCc2c1cc1n(c2=O)Cc2c-1nc1cc(F)c(C)c3c1c2[C@@H](NC(=O)C(O)C1(CO)CC1)CC3 (stereo partly drawn) [Compound 30, N-((1S,9S)-9-ethyl-5-fluoro-9-hydroxy-4-methyl-10,13-dioxo-2,3,9,10,13,15-hexahydro-1H,12H-benzo[de]pyrano[3′,4′: 6,7]indolizino[1,2-b]quinolin-1-yl)-2-hydroxy-2-(1-(hydroxymethyl)cyclopropyl)acetamide] | 2.5
4 | CC[C@@]1(O)C(=O)OCc2c1cc1n(c2=O)Cc2c-1nc1cc(F)c(C)c3c1c2[C@@H](NC(=O)C(C)(C)N)CC3 [Compound 41, 2-amino-N-((1S,9S)-9-ethyl-5-fluoro-9-hydroxy-4-methyl-10,13-dioxo-2,3,9,10,13,15-hexahydro-1H,12H-benzo[de]pyrano[3′,4′: 6,7]indolizino[1,2-b]quinolin-1-yl)-2-methylpropanamide formate] | 2.3
5 | CC[C@@]1(O)C(=O)OCc2c1cc1n(c2=O)Cc2c-1nc1cc(F)c(C)c3c1c2[C@@H](NC(=O)[C@@H](C)CO)CC3 [Compound 32, (S)—N-((1S,9S)-9-ethyl-5-fluoro-9-hydroxy-4-methyl-10,13-dioxo-2,3,9,10,13,15-hexahydro-1H,12H-benzo[de]pyrano[3′,4′: 6,7]indolizino[1,2-b]quinolin-1-yl)-3-hydroxy-2-methylpropanamide] | 1.4
6 | CC[C@@]1(O)C(=O)OCc2c1cc1n(c2=O)Cc2c-1nc1cc(F)c(C)c3c1c2[C@@H](NCC(C)(F)F)CC3 [Compound 57] | 6.2
7 | CC[C@@]1(O)C(=O)OCc2c1cc1n(c2=O)Cc2c-1nc1cc(F)c(C)c3c1c2[C@@H](NC(=O)C(CO)C1CC1)CC3 (single isomer, unassigned) [Compound 22] | 4.3
8 | CC[C@@]1(O)C(=O)OCc2c1cc1n(c2=O)Cc2c-1nc1cc(F)c(C)c3c1c2[C@@H](NC(=O)[C@H](O)CCOC(F)F)CC3 [Compound 21, (R)-4-(difluoromethoxy)-N-((1S,9S)-9-ethyl-5-fluoro-9-hydroxy-4-methyl-10,13-dioxo-2,3,9,10,13,15-hexahydro-1H,12H-benzo[de]pyrano[3′,4′: 6,7]indolizino[1,2-b]quinolin-1-yl)-2-hydroxybutanamide] | 3.6
9 | CC[C@@]1(O)C(=O)OCc2c1cc1n(c2=O)Cc2c-1nc1cc(F)c(C)c3c1c2[C@@H](NC(=O)C(CO)C(F)(F)F)CC3 (single isomer, unassigned) [Compound 10] | 4.4
10 | CC[C@@]1(O)C(=O)OCc2c1cc1n(c2=O)Cc2c-1nc1cc(F)c(C)c3c1c2[C@@H](NC(=O)[C@H](C)CO)CC3 [Compound 33] | 3.8
11 | CC[C@@]1(O)C(=O)OCc2c1cc1n(c2=O)Cc2c-1nc1cc(F)c(C)c3c1c2[C@@H](NC(C)C(F)F)CC3 (some centres unmarked) [Compound 59] | 5.4
12 | CC[C@@]1(O)C(=O)OCc2c1cc1n(c2=O)Cc2c-1nc1cc(F)c(C)c3c1c2[C@@H](NC(=O)C(C)(N)C(F)F)CC3 (some centres unmarked) [Compound 13] | 4.2
13 | CC[C@@]1(O)C(=O)OCc2c1cc1n(c2=O)Cc2c-1nc1cc(F)c(C)c3c1c2[C@@H](NC(=O)[C@@H](O)CCO)CC3 [Compound 2] | 6.6
14 | CC[C@@]1(O)C(=O)OCc2c1cc1n(c2=O)Cc2c-1nc1cc(F)c(C)c3c1c2[C@@H](NC(=O)C(F)(F)C(C)O)CC3 (single isomer, unassigned) [Compound 7] | 1.7
15 | CC[C@@]1(O)C(=O)OCc2c1cc1n(c2=O)Cc2c-1nc1cc(F)c(C)c3c1c2[C@@H](NC(=O)[C@@H](O)CO)CC3 [Compound 28, (1S,9S)-1-((S)-2,3-dihydroxypropanamido)-9-ethyl-5-fluoro-9-hydroxy-4-methyl-10,13-dioxo-2,3,9,10,13,15-hexahydro-1H,12H-benzo[de]pyrano[3′,4′: 6,7]indolizino[1,2-b]quinolin-7-ium hexafluorophosphate (V)] | 9.7
16 | CC[C@@]1(O)C(=O)OCc2c1cc1n(c2=O)Cc2c-1nc1cc(F)c(C)c3c1c2[C@@H](NC(=O)[C@H](O)CCO)CC3 (single isomer, unassigned) [Compound 1] | 1.4
17 | CC[C@@]1(O)C(=O)OCc2c1cc1n(c2=O)Cc2c-1nc1cc(F)c(C)c3c1c2[C@@H](NC(=O)[C@H](N)CO)CC3 [Compound 46] | 5
18 | CC[C@@]1(O)C(=O)OCc2c1cc1n(c2=O)Cc2c-1nc1cc(F)c(C)c3c1c2[C@@H](NCCCO)CC3 [Compound 52] | 5.1
19 | CC[C@@]1(O)C(=O)OCc2c1cc1n(c2=O)Cc2c-1nc1cc(F)c(C)c3c1c2[C@@H](NCc1ccccc1CO)CC3 [Compound 56] | 5.5

Same assay, conditions: Homo sapiens; Jeko-1 cells, 3000 cells/well; compounds added Day 1; CellTiter-Glo 2.0 luminescence read on Day 4 or 5; read-out: Jeko-1 EC50

Row | Compound | EC50 [nM]
20 | CC[C@@]1(O)C(=O)OCc2c1cc1n(c2=O)Cc2c-1nc1cc(F)c(C)c3c1c2[C@@H](NCCO)CC3 [Compound 51, (1S,9S)-9-ethyl-5-fluoro-9-hydroxy-1-((2-hydroxyethyl)amino)-4-methyl-1,2,3,9,12,15-hexahydro-10H,13H-benzo[de]pyrano[3′,4′: 6,7]indolizino[1,2-b]quinoline-10,13-dione formate] | 3.7
21 | CC[C@@]1(O)C(=O)OCc2c1cc1n(c2=O)Cc2c-1nc1cc(F)c(C)c3c1c2[C@@H](NC(=O)CCO)CC3 [Compound 27] | 3.1

Same assay, conditions: read-out: Jeko-1 EC50; Jeko-1 cells, 3000 cells/well; compounds added Day 1; CellTiter-Glo 2.0 luminescence read on Day 4 or 5

Row | Compound | EC50 [nM]
22 | CC[C@@]1(O)C(=O)OCc2c1cc1n(c2=O)Cc2c-1nc1cc(F)c(C)c3c1c2[C@@H](NC(=O)C(C)(O)CO)CC3 (single isomer, unassigned) [Compound 4] | 1.2
23 | CC[C@@]1(O)C(=O)OCc2c1cc1n(c2=O)Cc2c-1nc1cc(F)c(C)c3c1c2[C@@H](NC(=O)C(F)CO)CC3 (single isomer, unassigned) [Compound 35] | 1.5
24 | CC[C@@]1(O)C(=O)OCc2c1cc1n(c2=O)Cc2c-1nc1cc(F)c(C)c3c1c2[C@@H](NC(=O)C(F)CO)CC3 (single isomer, unassigned) [Compound 34] | 4.3
25 | CC[C@@]1(O)C(=O)OCc2c1cc1n(c2=O)Cc2c-1nc1cc(F)c(C)c3c1c2[C@@H](NC(=O)C(N)C(F)(F)F)CC3 (single isomer, unassigned) [Compound 15] | 2.9
26 | CC[C@@]1(O)C(=O)OCc2c1cc1n(c2=O)Cc2c-1nc1cc(F)c(C)c3c1c2[C@@H](NC(=O)C(C)(F)CO)CC3 (single isomer, unassigned) [Compound 37] | 3.1
27 | CC[C@@]1(O)C(=O)OCc2c1cc1n(c2=O)Cc2c-1nc1cc(F)c(C)c3c1c2[C@@H](NC(=O)C(N)(Cc1ccccc1)C(F)(F)F)CC3 (single isomer, unassigned) [Compound 18] | 44
28 | CC[C@@]1(O)C(=O)OCc2c1cc1n(c2=O)Cc2c-1nc1cc(F)c(C)c3c1c2[C@@H](NC(=O)C(CO)C(F)(F)F)CC3 (single isomer, unassigned) [Compound 11] | 5.3
29 | CC[C@@]1(O)C(=O)OCc2c1cc1n(c2=O)Cc2c-1nc1cc(F)c(C)c3c1c2[C@@H](NC(=O)C(CO)C1CC1)CC3 (single isomer, unassigned) [Compound 23] | 4.6
